Measurements: US20090170940A1 (priority 2007, published 2009)
Counter-ions that a name gives are not always drawn.

What was measured:
humans = details: cited from earlier work

Structure (SMILES) | amount that can be fatal (humans) [mL] | % Eclosion (nematode eggs) [%]
CNC(=O)Oc1cccc2c1OC(C)(C)C2 [Furadan, 2,3-dihydro-2,2-dimethyl-7-benzofuranyl methylcarbamate] | 1 | 0.05
CCOC=O [ethyl formate] | – | 0.05
